Measurements reported in patent US9351491B2, “Inhibition and dispersion of biofilms in plants with imidazole-triazole derivatives” (priority 2008, dated 2016).
Where a name gives a salt, the structure may show the parent alone.

Key:
[1] = test system: Xanthomonas strains Xcv 135; assay: Crystal violet biofilm inhibition (attachment) assay on PVC microtiter wells; assay type: cell-based; settings: 28° C., 6 hours, static
Procedure: A Standard Crystal Violet reporter assay is employed to assess the effect of compounds from the 2-amino on the formation of biofilms. Among others, the following strains are tested:
Bacteria are allowed to form biofilms in a multi-well plate in the absence or presence of one or more compounds. Planktonic (or free growing) bacteria are then removed, wells washed vigorously, and crystal violet added. Crystal violet stains the remaining bacteria which, following ethanol solubilization, is quantitated by spectrophotometry (A540). Time-dependent and concentration-dependent analysis of each compound are performed.
Biofilm formation on PVC microtiter wells was accomplished using Xanthomonas strains Xcv 135 (known to infect peppers and tomatoes) and Xcv 5 (known to infect tomatoes but not peppers) as models. The Starting Optical Density (OD at 600 nm) for biofilm attachment assay was 0.55, the temperature for this assay was 28° C., the duration of incubation was 6 hours under, and the assay was static.
Biofilm inhibition results are as follows for screens with Xcv 135. The Xcv 5 strain is tested in the same manner.

[2] = test system: bacterial spot (caused by the bacterium Xanthomonas euvesicatoria) of pepper, copper-resistant strains; assay: Field test in pepper plants inoculated with Xanthomonas euvesicatoria (bacterial spot); assay type: in vivo
Procedure: To test the effects of the triazole derivatives for plant biofilm inhibition activity, the compound of Formula (II)(a)(5)(D) was used as an exemplary compound (the “biofilm inhibitor/disperser” or “BFI” in the text hereinafter of Example 4).
The compound was evaluated under field conditions to determine whether it controls or enhances control of bacterial spot (caused by the bacterium Xanthomonas euvesicatoria) of pepper when applied alone or in tank-mixtures with a copper (Kocide 3000), an antibiotic (GWN-9350, gentamicin), or a putative plant defense activator (Prophyt). Tests were performed April-July 2008 at the North Carolina Agricultural Research Service Sandhills Research Station, Montgomery County.
EXPERIMENTAL DESIGN and TREATMENT APPLICATIONS: Each treatment consisted of two 7-plant rows running east-west replicated in a four-block completely randomized design. Each 7-plant row was 10.5 ft×2 ft. This area was used to calculate the quantity of spray material extrapolated for a per acre basis. Plants of bell pepper cultivar ‘X3R-Camelot’ were transplanted to the field on Apr. 24, 2008. On May 6, two plants in the south row of each plot of each treatment were inoculated with a suspension of copper-resistant strains of the bacterial pathogen. These plants were destined to serve as the inoculum source for each plot. Each of the spray test materials was mixed in 1.5 liters of water and applied using a backpack sprayer by making a single pass on each side of the plant row. Treatments were applied weekly starting immediately after the plants had been inoculated May 6 followed by 7 additional weekly sprays for a total of 8 applications through June 24.
DATA: Ratings of foliar disease were started May 22, when symptoms were observed on the inoculated plants and continued weekly through June 25. Disease was most severe on the inoculated plants and then spread to the non-inoculated plants. Data from these two groups (inoculated plants and the non-inoculated) were evaluated separately. The results are expressed as disease progress over time using the calculated Area Under the Disease Progress Curve (AUDPC). Two fruit harvests were done; July 1 and 8. Because there had been plant loss in some plots, the number of plants per plot was counted and yields (number of fruit and weight) were calculated and are reported on a per plant basis per treatment.

[3] = test system: C. albicans; assay: Growth curve / colony count analysis, C. albicans; assay type: cell-based, Candida albicans; settings: 100 μM (data not shown)
[4] = test system: Candida albicans biofilms; assay: Inhibition of C. albicans biofilm formation, crystal violet reporter assay; assay type: cell-based; settings: 24 h, read-out: inhibition of C. albicans biofilm formation
Procedure: It was screened at 100 μM for its ability to inhibit to the formation of C. albicans biofilms using a crystal violet reporter assay. Briefly, biofilms were allowed to form for 24 hours in a 96-well microtiter plate in the absence or presence of 100 μM of the compound. The wells were subsequently washed thoroughly with water to remove free-floating and loosely adherent fungus, and then treated with crystal violet. Crystal violet stains the remaining surface attached fungus (i.e. the biofilm), which following solublization, can be quantified by spectrophotometry (A540).
Each member of the pilot library was assayed at 100 μM for its ability to inhibit the formation of C. albicans biofilms using the crystal violet reporter assay.
Procedure to Determine the Inhibitory Effect of Test Compounds on C. albicans, C. neoformans and a Mixed S. epidermidis/C. albicans Biofilm Formation:
Inhibition assays were performed by taking an overnight culture of yeast or yeast/bacteria strain and subculturing it at an OD600 of 0.05 into YPD (Yeast extract, peptone and dextrose (BD 242820)) media for the yeast alone or tryptic soy broth for the S. epidermidis/C. albicans. […] Biofilm inhibition was quantitated by measuring the OD540 of each well in which a negative control lane wherein no biofilm was formed served as a background and was subtracted out.

[5] = two fruit harvests, per plant basis

SMILES | % Inhibition at 20 μM (vs. Xcv 135) [1] [%] | Mean AUDPC for entire plot ([2]; foliar disease, 0-9 rating scale, AUDPC, entire plot, 8 weekly sprays) [a] | Mean AUDPC for inoculated plants ([2]; foliar disease, 0-9 rating scale, Area Under the Disease Progress Curve, inoculated bell pepper plants, 8 weekly sprays, rate/acre as in treatment line) [b] | Mean fruit yield (lb)/plant [2, 5] [b lb] | Mean number pepper fruit/plant [2, 5] [b] | growth curves: anti-biofilm activity fungicidal or not [3] | inhibition at 100 µM [4] [%]
C/C(=C\c1ccccc1)Cn1cc(CCCCCc2c[nH]c(N)n2)nn1 [Formula (II)(a)(5)(D), 4-{5-[1-(2-Methyl-3-phenyl-allyl)-1H-[1,2,3]triazol-4-yl]-pentyl}-1H-imidazol-2-ylamine hydrochloride] | 86 | 42 | 113 | 1.46 | 4.8 | non-fungicidal | 12
C/C(=C\c1ccccc1)Cn1cc(CCCCCCc2c[nH]c(N)n2)nn1 [Formula (II)(a)(6)(D), 4-{6-[1-(2-Methyl-3-phenyl-allyl)-1H-[1,2,3]triazol-4-yl]-hexyl}-1H-imidazol-2-ylamine hydrochloride] | 85 |  |  |  |  |  | 
Nc1nc(CCc2cn(CCc3c[nH]c4ccccc34)nn2)c[nH]1 [Formula (II)(i)(a)(2)(J)] | 0 |  |  |  |  |  | 
